Data from ChEMBL document CHEMBL6078645, “Expanding the Solvent/Protein Region Occupation of the Non-Nucleoside Reverse Transcriptase Inhibitor Binding Pocket for Improved Broad-Spectrum Anti-HIV-1 Efficacy: from Rigid Phenyl-Diarylpyrimidines to Flexible Hydrophilic Piperidine-Diarylpyrimidines” (J Med Chem, 2024).
“And” between values parts separate entries of the source, which are not always exact repeats. Identical values can stand only once.

Assays:
[1] = system: Human immunodeficiency virus 1; assay: Antiviral activity against HIV-1 harboring Y188L mutant infected in human MT4 cells assessed as protection against virus-induced cytopathic effect incubated for 5 days by MTT assay; format: functional, organism-based; conditions: Human immunodeficiency virus 1, MT4, 120 h
[2] = molecular target: T1, Human immunodeficiency virus type 1 reverse transcriptase (Human immunodeficiency virus 1, UniProt Q72547); assay: Inhibition of HIV-1 reverse transcriptase
[3] = Cytotoxicity against human MT4 cells assessed as reduction in cell viability incubated for 5 days by MTT assay; format: toxicity, cell-based; conditions: MT4 cells, time 5 day
[4] = Selectivity index, ratio of CC50 for cytotoxicity against human MT4 cells assessed as reduction in cell viability to EC50 for antiviral activity against wild type HIV-1 IIIB infected in human MT4 cells assessed as protection against virus-induced cytopathic effect; format: toxicity, cell-based; conditions: MT4 cells, read-out: Ratio CC50/EC50
[5] = system: Human immunodeficiency virus 1; assay: Antiviral activity against HIV-1 harboring RES056 mutant infected in human MT4 cells assessed as protection against virus-induced cytopathic effect incubated for 5 days by MTT assay; format: functional, organism-based; conditions: Human immunodeficiency virus 1, MT4, 120 h
[6] = molecular target: T1, Human immunodeficiency virus type 1 reverse transcriptase; assay: Inhibition of wildtype recombinant HIV-1 Reverse transcriptase incubated for 40 mins by spectrofluorometric analysis
[7] = system: Human immunodeficiency virus 1; assay: Antiviral activity against HIV-1 harboring F227L/V106A double mutant infected in human MT4 cells assessed as protection against virus-induced cytopathic effect incubated for 5 days by MTT assay; format: functional, organism-based; conditions: Human immunodeficiency virus 1, MT4, 120 h
[8] = system: Human immunodeficiency virus 1; assay: Antiviral activity against HIV-1 harboring L100I mutant infected in human MT4 cells assessed as protection against virus-induced cytopathic effect incubated for 5 days by MTT assay; format: functional, organism-based; conditions: Human immunodeficiency virus 1, MT4, 120 h
[9] = system: Human immunodeficiency virus 1; assay: Antiviral activity against HIV-1 harboring E138K mutant infected in human MT4 cells assessed as protection against virus-induced cytopathic effect incubated for 5 days by MTT assay; format: functional, organism-based; conditions: Human immunodeficiency virus 1, MT4, 120 h
[10] = system: Human immunodeficiency virus 1; assay: Antiviral activity against HIV-1 harboring K103N mutant infected in human MT4 cells assessed as protection against virus-induced cytopathic effect incubated for 5 days by MTT assay; format: functional, organism-based; conditions: Human immunodeficiency virus 1, MT4, 120 h
[11] = system: Human immunodeficiency virus 1; assay: Antiviral activity against HIV-1 harboring Y181C mutant infected in human MT4 cells assessed as protection against virus-induced cytopathic effect incubated for 5 days by MTT assay; format: functional, organism-based; conditions: Human immunodeficiency virus 1, MT4, 120 h
[12] = system: Human immunodeficiency virus 1; assay: Antiviral activity against wild type HIV-1 IIIB infected in human MT4 cells assessed as protection against virus-induced cytopathic effect incubated for 5 days by MTT assay; format: functional, organism-based; conditions: Human immunodeficiency virus 1, IIIB, MT4, 120 h

SMILES | EC50 [1] [µM] | EC50 [2] [µM] | CC50 at 120 h [3] [µM] | selectivity ratio [4] | EC50 [5] [µM] | IC50 [6] | EC50 [7] [µM] | EC50 [8] [µM] | EC50 [9] [µM] | EC50 [10] [µM] | EC50 [11] [µM] | EC50 [12] [µM]
Cc1cc(-c2ccc(C#N)cc2)cc(C)c1Oc1nc(NC2CCN(Cc3ccc(OC(F)(F)F)cc3)CC2)ncc1CO | 0.479 | 0.043 | 5.96 | 140 | 1.26 | 0.375 µM and 0.249 µM | 1.08 |  |  |  |  | 
Cc1cc(-c2ccc(C#N)cc2)cc(C)c1Oc1nc(NC2CCN(Cc3ccc(C(=O)NCCCO)cc3)CC2)ncc1CO | 0.114 | 0.007 | 17.3 | 2630 | 0.272 | 0.463 µM | 0.055 | 0.01 | 0.026 | 0.007 | 0.029 | 
CNC(=O)c1ccc(CN2CCC(Nc3ncc(CO)c(Oc4c(C)cc(-c5ccc(C#N)cc5)cc4C)n3)CC2)cc1 | 0.551 | 0.023 | 28.1 | 1250 | 4.69 | 0.438 µM | 1.39 |  |  |  |  | 
Cc1cn([C@H]2C[C@H](N=[N+]=[N-])[C@@H](CO)O2)c(=O)[nH]c1=O [ZIDOVUDINE] | 0.015 | 0.027 | > 7.49 | > 281 | 0.034 |  | 0.017 |  | 0.032 | 0.029 | 0.022 | 
Cc1cc(-c2ccncc2)cc(C)c1Oc1nc(NC2CCN(Cc3ccc(S(=O)(=O)N4CCC(O)CC4)cc3)CC2)ncc1CO | 0.226 |  | 17.7 | 750 | 0.446 |  | 0.043 |  |  |  |  | 0.024
Cc1ccnc2c1NC(=O)c1cccnc1N2C1CC1 [NEVIRAPINE] | 9.31 |  | > 15.3 |  | > 15.3 |  | 6.46 | 1360 |  | 2.18 | 6.92 | 
Cc1cc(-c2ccc(C#N)cc2)cc(C)c1Oc1nc(NC2CCN(Cc3cccc([N+](=O)[O-])c3)CC2)ncc1CO | 0.167 | 0.009 | 7.36 | 819 | 0.646 | 0.184 µM | 0.291 |  |  |  |  | 
Cc1cc(-c2ccc(C#N)cc2)cc(C)c1Oc1nc(NC2CCN(Cc3ccccc3C#N)CC2)ncc1CO | 0.2 | 0.008 | 5.14 | 628 | 0.409 | 0.226 µM | 0.239 |  |  |  |  | 
CNS(=O)(=O)c1ccc(CN2CCC(Nc3ncc(CO)c(Oc4c(C)cc(-c5ccc(C#N)cc5)cc4C)n3)CC2)cc1 | 0.031 | 0.006 | 6.68 | 1190 | 0.066 | 0.497 µM | 0.052 | 0.008 | 0.03 | 0.01 | 0.019 | 
COC(=O)/C=C/c1ccc(CN2CCC(Nc3ncc(CO)c(Oc4c(C)cc(-c5ccc(C#N)cc5)cc4C)n3)CC2)cc1 | 0.213 | 0.007 | 88.3 | 13400 | 0.357 | 0.437 µM | 0.329 |  |  |  |  | 
Cc1cc(-c2ccc(C#N)cc2)cc(C)c1Oc1nc(NC2CCN(Cc3cccc(C#N)c3)CC2)ncc1CO | 0.051 | 0.008 | 5.81 | 711 | 0.99 | 0.261 µM | 0.122 | 0.012 | 0.055 | 0.016 | 0.018 | 
COC(=O)c1ccc(CN2CCC(Nc3ncc(CO)c(Oc4c(C)cc(-c5ccc(C#N)cc5)cc4C)n3)CC2)cc1 | 0.175 | 0.012 | 13.9 | 1120 | 0.469 | 0.377 µM | 0.175 |  |  |  |  | 
Cc1cc(-c2ccc(C#N)cc2)cc(C)c1Oc1nc(NC2CCN(Cc3ccc([N+](=O)[O-])cc3)CC2)ncc1CO | 0.189 | 0.008 | 3.23 | 381 | 0.306 | 0.202 µM | 0.54 |  |  |  |  | 
CNC(=O)c1cccc(CN2CCC(Nc3ncc(CO)c(Oc4c(C)cc(-c5ccc(C#N)cc5)cc4C)n3)CC2)c1 | 0.813 | 0.04 | 20.2 | 506 | 5.63 | 0.305 µM | 5 |  |  |  |  | 
Cc1cc(-c2ccc(C#N)cc2)cc(C)c1Oc1nc(NC2CCN(Cc3ccc(S(=O)(=O)NCCCO)cc3)CC2)ncc1CO | 0.24 | 0.026 | 6.32 | 247 | 0.268 | 0.543 µM | 0.114 |  |  |  |  | 
